{"source": "paper PMC2951486", "about": "(Journal of Alzheimer's disease : JAD, 2010)", "key": {"[1]": {"molecular_target": "AD-PHFs (Homo sapiens, UniProt P10636)", "sequence (P10636 623-758 limits assumed)": "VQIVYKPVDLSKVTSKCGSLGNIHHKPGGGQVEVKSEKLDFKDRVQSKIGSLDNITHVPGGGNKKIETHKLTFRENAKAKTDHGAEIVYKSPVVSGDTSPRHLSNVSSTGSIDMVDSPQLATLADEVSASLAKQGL", "assay": "Inhibition assay, displacement of [3H]-AST from AD-PHFs", "settings": "inhibition of [3H]-AST binding; Ki values only in Fig. 2E"}, "[2]": {"assay": "Parallel artificial membrane permeability assay", "settings": "PAMPA, pH 7.4"}, "[3]": {"test_system": "synthetic Aβ peptide (Aβ1–42) aggregates", "assay": "Scatchard analysis of [3H]-AST binding to Aβ peptide aggregates", "settings": "amyloid aggregates"}, "[4]": {"test_system": "AD-PHF immobilized on CM5 sensor chip", "assay": "Surface plasmon resonance on immobilized AD-PHFs", "format": "binding, human", "settings": "SPR, AD-PHFs versus aggregated amyloid"}, "[5]": {"molecular_target": "heparin-induced tau filaments (HITF) (Homo sapiens, UniProt P10636)", "sequence (P10636 1-441 isoform P10636-8)": "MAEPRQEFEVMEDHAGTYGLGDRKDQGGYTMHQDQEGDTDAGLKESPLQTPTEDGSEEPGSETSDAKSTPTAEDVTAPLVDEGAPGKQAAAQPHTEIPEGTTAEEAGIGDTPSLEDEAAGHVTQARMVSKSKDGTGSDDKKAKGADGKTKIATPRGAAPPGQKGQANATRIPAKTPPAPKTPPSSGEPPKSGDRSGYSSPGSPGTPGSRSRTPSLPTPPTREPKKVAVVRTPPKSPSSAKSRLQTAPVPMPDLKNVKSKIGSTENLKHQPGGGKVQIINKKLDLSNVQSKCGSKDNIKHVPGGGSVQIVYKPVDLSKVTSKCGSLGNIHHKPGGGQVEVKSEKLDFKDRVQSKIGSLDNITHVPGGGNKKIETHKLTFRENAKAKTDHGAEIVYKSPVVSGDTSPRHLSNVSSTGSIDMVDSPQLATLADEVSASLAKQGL", "assay": "Inhibition assay, displacement of [3H]-AST from HITF", "settings": "inhibition of [3H]-AST binding; Ki values only in Fig. 2E"}, "[6]": {"molecular_target": "AD-PHF (Homo sapiens, UniProt P10636)", "sequence (P10636 623-758 limits assumed)": "as the sequence (P10636 623-758 limits assumed) above", "assay": "Double staining immunofluorescence of AD-PHFs with PHF-1 antibody and LNS", "settings": "LNS 0.1 %"}}, "data": [{"smiles": "COc1ccc(CCN2CCC(Nc3nc4ccccc4n3Cc3ccc(F)cc3)CC2)cc1", "note": "[AST, astemizole]", "values": [{"measurement": "affinity for AD-PHFs (relative Ki within the series)", "setting": "[1]", "result": "highest affinity for AD-PHFs"}, {"measurement": "Papp at 16 h", "setting": "[2]", "result": 145, "unit": "×10⁻⁶ cm/s"}, {"measurement": "ratio Bmax/Kd", "setting": "[3]", "result": 0.06}, {"measurement": "response curves (RU) on AD-PHFs surface compared to amyloid surface", "setting": "[4]", "result": "at least five times higher"}]}, {"smiles": "Cc1c(OCC(F)(F)F)ccnc1C[S+]([O-])c1nc2ccccc2[nH]1", "note": "(stereo not shown) [LNS, lansoprazole]", "values": [{"measurement": "affinity for HITF (relative Ki within the series)", "setting": "[5]", "result": "highest affinity for HITF"}, {"measurement": "response curves (RU) on AD-PHFs surface compared to amyloid surface", "setting": "[4]", "result": "at least five times higher"}, {"measurement": "staining of AD-PHF compared with PHF-1 immunostaining", "setting": "[6]", "result": "colocalization of the signals from LNS and PHF-1 mAb"}]}]}
